Assays:
FAAH [1] = molecular target: T1, FAAH (Mus musculus, UniProt O08914); assay: In vitro competitive activity-based protein profiling, FAAH, mouse; settings: read-out: FAAH % inh. 1 μM (mouse)
T1 sequence (O08914 1-579): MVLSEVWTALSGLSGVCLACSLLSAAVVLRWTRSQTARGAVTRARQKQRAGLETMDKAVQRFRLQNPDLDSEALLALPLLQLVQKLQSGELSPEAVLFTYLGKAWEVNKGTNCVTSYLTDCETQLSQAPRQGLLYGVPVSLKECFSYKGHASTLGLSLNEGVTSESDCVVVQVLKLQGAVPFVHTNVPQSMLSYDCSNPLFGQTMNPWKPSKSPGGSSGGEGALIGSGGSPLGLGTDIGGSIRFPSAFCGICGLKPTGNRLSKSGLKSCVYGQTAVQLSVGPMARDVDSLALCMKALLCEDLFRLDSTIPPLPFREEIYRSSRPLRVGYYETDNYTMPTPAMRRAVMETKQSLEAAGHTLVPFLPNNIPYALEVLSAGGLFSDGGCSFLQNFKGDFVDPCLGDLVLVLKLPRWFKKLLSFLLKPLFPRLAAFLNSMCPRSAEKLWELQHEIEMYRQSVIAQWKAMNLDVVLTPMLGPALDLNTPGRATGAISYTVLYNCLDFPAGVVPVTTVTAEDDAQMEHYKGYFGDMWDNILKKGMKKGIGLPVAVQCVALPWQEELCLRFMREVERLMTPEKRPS

MAGL [2] = molecular target: T2, MAGL (Homo sapiens, UniProt Q99685); assay: In vitro competitive activity-based protein profiling, MAGL, human; settings: read-out: MAGL % inh. 1 μM (human)
T2 sequence (Q99685 1-303): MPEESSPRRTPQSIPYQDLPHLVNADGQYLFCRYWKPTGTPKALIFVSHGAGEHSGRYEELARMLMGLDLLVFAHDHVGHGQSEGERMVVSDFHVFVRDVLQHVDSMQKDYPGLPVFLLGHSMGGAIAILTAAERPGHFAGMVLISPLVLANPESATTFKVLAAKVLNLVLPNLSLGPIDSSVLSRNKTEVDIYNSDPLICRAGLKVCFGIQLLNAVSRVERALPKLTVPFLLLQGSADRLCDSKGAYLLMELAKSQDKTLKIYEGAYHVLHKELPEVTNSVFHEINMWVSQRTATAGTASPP

MAGL [3] = molecular target: T3, MAGL (Mus musculus, UniProt O35678); assay: Mouse brain proteomes from inhibitor treated mice (oral gavage, sacrificed 4 h after administration); type: in vivo; set-up: mouse brain membrane fraction for mouse assays; from tissue; host or cells: mouse brain (membrane fraction in vitro; brain proteomes of treated C57Bl/6J mice in vivo); settings: 5 mg/kg oral gavage, brain proteome 4 h after administration, read-out: MAGL % inh. 5 mg/kg (mouse)
T3 sequence (O35678 1-303): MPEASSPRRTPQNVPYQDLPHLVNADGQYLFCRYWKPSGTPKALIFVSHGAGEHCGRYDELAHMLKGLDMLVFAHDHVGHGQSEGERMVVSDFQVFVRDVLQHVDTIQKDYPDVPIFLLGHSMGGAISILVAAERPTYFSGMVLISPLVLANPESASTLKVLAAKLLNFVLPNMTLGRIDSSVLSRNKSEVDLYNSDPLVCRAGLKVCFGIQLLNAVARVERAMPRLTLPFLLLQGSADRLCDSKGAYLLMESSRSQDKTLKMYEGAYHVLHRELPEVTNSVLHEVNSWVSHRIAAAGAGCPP

FAAH [4] = molecular target: T1, FAAH; assay: Mouse brain proteomes from inhibitor treated mice (oral gavage, sacrificed 4 h after administration), FAAH; type: in vivo; set-up: mouse brain membrane fraction for mouse assays; from tissue; host or cells: mouse brain (membrane fraction in vitro; brain proteomes of treated C57Bl/6J mice in vivo); settings: 5 mg/kg oral gavage, brain proteome 4 h after administration, read-out: FAAH % inh. 5 mg/kg (mouse)
FAAH [5] = molecular target: T4, FAAH (Homo sapiens, UniProt O00519); assay: In vitro competitive activity-based protein profiling, FAAH, human; settings: for inhibition at 1 µM: read-out: FAAH % inh. 1 μM (human)
T4 sequence (O00519 1-579): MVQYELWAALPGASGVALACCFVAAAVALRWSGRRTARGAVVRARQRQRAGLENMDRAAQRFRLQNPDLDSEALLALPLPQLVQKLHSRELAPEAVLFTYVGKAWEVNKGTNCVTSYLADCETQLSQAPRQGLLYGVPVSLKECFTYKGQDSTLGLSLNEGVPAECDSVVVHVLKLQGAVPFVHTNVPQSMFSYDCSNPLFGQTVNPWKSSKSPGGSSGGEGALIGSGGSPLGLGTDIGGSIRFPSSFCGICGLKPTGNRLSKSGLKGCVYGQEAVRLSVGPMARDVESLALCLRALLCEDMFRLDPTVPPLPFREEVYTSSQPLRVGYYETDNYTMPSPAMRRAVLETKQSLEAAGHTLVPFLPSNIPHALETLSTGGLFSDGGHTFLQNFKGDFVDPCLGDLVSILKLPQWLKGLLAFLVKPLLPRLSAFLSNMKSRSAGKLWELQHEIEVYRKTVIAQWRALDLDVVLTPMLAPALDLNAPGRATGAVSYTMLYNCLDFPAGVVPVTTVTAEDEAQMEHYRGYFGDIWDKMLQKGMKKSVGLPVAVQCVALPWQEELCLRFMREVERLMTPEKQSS

MAGL [6] = molecular target: T3, MAGL; assay: In vitro competitive activity-based protein profiling, MAGL, mouse; settings: read-out: MAGL % inh. 1 μM (mouse)

inhibition at 1 µM (FAAH [1]) [%]	inhibition at 1 µM (MAGL [2]) [%]	inhibition at 5 mg/kg (MAGL [3]) [%]	inhibition at 5 mg/kg (FAAH [4]) [%]	inhibition at 1 µM (FAAH [5]) [%]	inhibition at 1 µM (MAGL [6]) [%]	IC50 (FAAH [5]) [nM]	Structure (SMILES)
> 75	> 75	0 to 25	0 to 25	> 75	> 75	–	O=C(O)c1nn(C(=O)N2CCC3(CCCN3Cc3cc4ccc(C(F)(F)F)cc4s3)CC2)cc1Cl [Example 139, 4-chloro-1-(1-((6-(trifluoromethyl)benzo[b]thiophen-2-yl)methyl)-1,8-diazaspiro[4.5]decane-8-carbonyl)-1H-pyrazole-3-carboxylic acid]
> 75	> 75	0 to 25	25 to 50	> 75	> 75	100 to 1000	O=C(O)c1nn(C(=O)N2CCC3(CCN(Cc4cc(Cl)ccc4C(F)(F)F)C3)CC2)cc1C(F)(F)F [Example 148, 1-(2-(5-chloro-2-(trifluoromethyl)benzyl)-2,8-diazaspiro[4.5]decane-8-carbonyl)-4-(trifluoromethyl)-1H-pyrazole-3-carboxylic acid]
> 75	> 75	0 to 25	0 to 25	> 75	> 75	100 to 1000	Cc1c(CO[C@H]2C[C@@H]3CN(C(=O)n4ccc(C(=O)O)n4)C[C@@H]3C2)cccc1C(F)(F)F [Example 159, 1-(trans-5-((2-methyl-3-(trifluoromethyl)benzyl)oxy)octa-hydrocyclopenta[c]pyrrole-2-carbonyl)-1H-pyrazole-3-carboxylic acid]
0 to 25	> 75	0 to 25	0 to 25	0 to 25	> 75	–	O=C(O)c1ccn(C(=O)N2CCC3(CCCN3Cc3cc4ccc(C(F)(F)F)cc4s3)CC2)n1 [Example 185, 1-(1-((6-(trifluoromethyl)benzo[b]thiophen-2-yl)methyl)-1,8-diazaspiro[4.5]decane-8-carbonyl)-1H-pyrazole-3-carboxylic acid]
0 to 25	> 75	0 to 25	0 to 25	25 to 50	> 75	–	O=C(O)c1ccn(C(=O)N2CCN(Cc3cc4cc(Cl)ccc4s3)CC2)n1 [Example 187, 1-(4-((5-chlorobenzo[b]thio-phen-2-yl)methyl)piperazine-1-carbonyl)-1H-pyrazole-3-carboxylic acid]
> 75	> 75	> 75	0 to 25	> 75	> 75	100 to 1000	NC(=O)c1ccn(C(=O)N2CCN(Cc3cccc(C(F)(F)F)c3N3CCOCC3)CC2)n1 [Example 199, 1-(4-(2-morpholino-3-(trifluoromethyl)benzyl)piperazine-1-carbonyl)-1H-pyrazole-3-carboxamide]

Second part, the molecule before the results:

Structure (SMILES)	inhibition at 1 µM (FAAH [1]) [%]	inhibition at 1 µM (MAGL [2]) [%]	inhibition at 5 mg/kg (MAGL [3]) [%]	inhibition at 5 mg/kg (FAAH [4]) [%]	inhibition at 1 µM (FAAH [5]) [%]	inhibition at 1 µM (MAGL [6]) [%]	IC50 (FAAH [5]) [nM]
Cc1cn(C(=O)N2CCC3(CC2)CN(Cc2ccc(C(F)(F)F)cc2N2CCCC2)C3)nc1C(=O)O [Example 135, 4-methyl-1-(2-(2-(pyrrolidin-1-yl)-4-(trifluoromethyl)benzyl)-2,7-diazaspiro[3.5]non-ane-7-carbonyl)-1H-pyrazole-3-carboxylic acid]	0 to 25	> 75	0 to 25	0 to 25	0 to 25	> 75	–
O=C(O)c1nn(C(=O)N2CC3CN(Cc4ccc(N5CCCC5)cc4C(F)(F)F)CC3C2)cc1Cl (centres unmarked) [Example 140, 4-chloro-1-(5-(4-(pyrrolidin-1-yl)-2-(trifluoromethyl)benzyl)octahydro-pyrrolo[3,4-c]pyrrole-2-carbonyl)-1H-pyrazole-3-carboxylic acid]	50 to 75	> 75	0 to 25	0 to 25	50 to 75	> 75	100 to 1000
O=C(O)c1ccn(C(=O)N2C[C@H]3C[C@H](OCc4cccc(C(F)(F)F)c4)C[C@H]3C2)n1 [Example 157, 1-(trans-5-((3-(trifluoromethyl)benzyl)oxy)octa-hydrocyclopenta[c]pyrrole-2-carbonyl)-1H-pyrazole-3-carboxylic acid]	> 75	> 75	0 to 25	0 to 25	> 75	> 75	100 to 1000
O=C(O)c1ccn(C(=O)N2C[C@H]3C[C@H](OCc4cccc(Oc5ccc(Cl)cc5)c4)C[C@H]3C2)n1 [Example 158, 1-(trans-5-((3-(4-chlorophenoxy)benzyl)oxy)octa-hydrocyclopenta[c]pyrrole-2-carbonyl)-1H-pyrazole-3-carboxylic acid]	> 75	> 75	0 to 25	0 to 25	> 75	> 75	–
Cc1c(CN2CCN(C(=O)n3ccc(C(=O)O)n3)CC2)[nH]c2ccc(Cl)cc12 [Example 188, 1-(4-((5-chloro-3-methyl-1H-indol-2-yl)methyl)piperazine-1-carbonyl)-1H-pyrazole-3-carboxylic acid]	0 to 25	> 75	0 to 25	0 to 25	0 to 25	> 75	–
CN(Cc1ccc(C(F)(F)F)cc1N1C2CCC1COC2)C1(C)CCN(C(=O)n2ccc(C(=O)O)n2)CC1 [Example 207, 1-(4-((2-(3-oxa-8-azabicyclo[3.2.1]octan-8-yl)-4-(trifluoromethyl)benzyl)(methyl)amino)-4-methyl-piperidine-1-carbonyl)-1H-pyrazole-3-carboxylic acid]	0 to 25	> 75	0 to 25	0 to 25	0 to 25	> 75	–
